# Legend:
# Uppsala mice = Uppsala mice fed lab chow containing 0.5 weight% NDGA, observation of aging and skin wrinkling; assay type: in vivo
# Excerpt: In one aspect of practice of techniques of this invention, the compounds of formula (1) are useful in retarding the aging phenomena of skin wrinkling. In this example, twenty four (24) Uppsala mice were fed standard lab chow (provided by Anticimax of Sodertalje, Sweden) containing 0.5 weight% NDGA ad libitum from the twelfth to thirty-sixth month of their lifespan.
# This increased wrinkling is indicative of collagen and elastin hardening and cross-linking via the conversion of imide to amide bonds as discussed above.
# [1] = system: lipid hydroperoxides in the skin; assay type: in vivo, human
# Excerpt: FIG. 3 is a graph showing the results of a double blind study set forth in Example 6, wherein a composition containing 2% NDGA by weight was applied topically to the skin of the foreheads of human volunters; and
# Turning to FIG. 3, the results of a double-blind time study using a composition containing 2% by weight NDGA can be seen. This composition was the same as the composition set forth in Example 3 with the exception that the percentage of water was reduced to 86.5%. Starting at time zero, 10 milliliters of this cream was vigorously applied topically onto the skin of the forehead of a volunteer. Measurements were taken at different intervals using non-invasive, reflective, near-infrared spectroscopy. The methods of non-invasive, reflective, near infrared spectroscopy used in this example are set forth in detail in R. Lippman, "Rapid in vivo Quantification and Comparision of Hydroperoxides and Oxidized Collagen in Aging Mice, Rabbits and Man", Experimental Gerontology, Vol. 20, pp. 1-5, 1985, which is incorporated herein by this reference.
# [2] = system: microvascular lipid hydroperoxides; experiment: Pharmacokinetic time-course (double-blind) study of single oral doses of NDGA, microvascular lipid hydroperoxides; assay type: in vivo, human
# Experimental: Placebos were given to two (2) other volunteers. Using the above referenced non-invasive technique called reflective, near-infrared spectroscopy, changes in the microvascular concentrations of lipid hydroperoxides were monitored during 8 hour test periods. […] Subjects received single doses of NDGA and placebos orally, respectively.
# [3] = system: Mitochondria from a human liver; experiment: Chemiluminescent probe of superoxide and hydroxyl radicals in isolated mitochondria; assay type: biochemical
# Excerpt: Mitrochondria from a human liver were freshly isolated and maintained in a culture environment so that normal respiration and ATP production occurred. Special chemical probes, e.g. luminol-carnitine derivatives, were pipetted into the mitochondria culture media. Uptake of the probes occurred in the mitrochondrial inner membrane where oxygen metabolism and toxic oxygen byproducts are produced. The probes emitted chemiluminescent light in proportion to superoxide (O2^-.) and hydroxyl radicals (.OH). This light was measured by a photomultiplier, and the results were quantified and recorded.
# [4] = system: Glial cells from a human brain; experiment: Cellular ATP production in cultivated glial cells (bioluminescence); assay type: cell-based; conditions: NDGA 0.5% w/v in culture
# Experimental: Glial cells from a human brain were cultivated by monolayering on Petri dishes. Cellular ATP production was measured using bioluminescent methods (luciferin, luciferase and photomultiplier detection).
# [5] = isolated human liver mitochondria
compound,measurement,setting,value
"CC(Cc1ccc(O)c(O)c1)C(C)Cc1ccc(O)c(O)c1 (stereo not drawn) [NDGA, 1,4-bis(3,4-dihydroxyphenyl)-2,3-dimethylbutane]","skin wrinkling, control mice versus NDGA fed mice",Uppsala mice; 0.5 weight% NDGA in chow,greater skin wrinkling in control mice versus NDGA fed mice
same,visual appearance (youthful and healthy) versus control mice,"Uppsala mice; 0.5 weight% NDGA in chow from twelfth month, at 26 months of age",visually more youthful and healthy
same,NDGA fed mice still living,"Uppsala mice; 24 mice at start, 0.5 weight% NDGA in chow, one control mouse of 6 remaining",four
same,"facial skin and skin unsaturated lipids, damage",[1]; 2% by weight NDGA cream topically on forehead,"facial skin and skin unsaturated lipids are preserved, and damage is prevented"
same,return to normal level of lipid hydroperoxides,"[1]; 2% by weight NDGA cream topically, after approximately 4 hours",190 micromole/cm^2
same,"lipid hydroperoxides in skin layers and microvascularization, level decreased to","[1]; 2% by weight NDGA cream, 10 milliliters topically on forehead, after about one hour, from about 190",~151 micromole/cm^2 skin
same,reduction of levels of microvascular lipid hydroperoxides,"[2]; oral, single doses 50, 75, 100 and 200 mg, during the 4 to 8 hour study periods",at least 15%
same,"neutralization of toxic byproducts of oxygen metabolism, i.e. lipid hydroperoxides (conclusion)","[2]; when taken at regular intervals of at least 6 hours, 3 times daily",effective neutralizer of toxic byproducts of oxygen metabolism
same,lifespan of the human mitochondria,[3]; [5],Increased lifespan of the human mitochondria
same,toxic oxygen byproducts,[3]; [5],significantly reduced toxic oxygen byproducts
same,steady state light (chemiluminescence of superoxide and hydroxyl radicals),[3]; luminol-carnitine derivative probes,significantly reduced the steady state light
same,steady state ATP production,[4],increase in steady state ATP production was observed

# Source: patent US4695590A, “Method for retarding aging” (California Health Technologies, priority 1986, dated 1987)
